Converted amounts (≈) assume the structure as drawn. Like-named read-outs stand apart in the source and are kept apart here.
How the values were obtained:
[1] = target: single-chain tethered dimer of HIV protease (Human immunodeficiency virus 1, UniProt P04585); test: biochemical; format: biochemical; set-up: fused on or other part: A second copy of the same protease unit is joined to the first by a short peptide tether, giving one polypeptide
Method: HIV Protease Inhibition Assay—HPLC Method
Active protease was prepared as described therein by extraction with 67% acetic acid, dilution 33-fold with water, dialysis against water and then against a “refolding buffer” consisting of 20 mM MES, 1 mM dithiothreitol and 10% glycerol. Protease was stored as a stock preparation at 10 uM in refolding buffer.
Substrate: Peptide of sequence: aminobenzoyl-Ala-Thr-His-Gln-Val-Tyr-Phe(NO2)-Val-Arg-Lys-Ala containing p-nitrophenylalanine, was prepared by solid phase synthesis as previously described Cheng et al., op.cit. Stock solutions of 2 mM substrate were prepared in DMSO.
Inhibitory compounds were dissolved in sufficient DMSO to make 3 mM stock solutions. All further dilutions were prepared in “assay buffer”: 1M NaCl, 50 mM MES, pH 5.5, 1 mM EDTA, 1 mM DTT, […] glycerol.
Enzyme reaction: In a 2 ml screw-cap centrifuge tube were added 50 ul protease (final concentration 0.25 nM) and 0.1 ml inhibitory compound (final concentration […]). After 15 min preincubation at room temperature, the reaction was started with the addition of 0.05 ml substrate (final concentration 5 uM). Incubation was carried out at 30 C. for 1 hr. The reaction was stopped with 1 ml 0.1M ammonium hydroxide.
HPLC measurement of product formation: The product (aminobenzoyl-Ala-Thr-His-Gln-Val-Tyr) was separated from substrate on a Pharmacia MonoQ anion exchange column. The injection volume was 0.2 ml. The mobile phases were: A (20 mM trisHCl, pH 9.0, 0.02% sodium Azide, 10% acetonitrile), B (20 mM tris HCl, pH 9.0, 0.02% sodium azide, 0.5M ammonium formate, 10% acetonitrile). The mobile phases were pumped at 1 ml/min, with a gradient from 0 to 30% B in 5 min, 100% B for 4 min to wash the column, and a re-equilibration for 4 min. The retention time of the product was 3.6 min. Detection with a Shimadzu model RF535 fluorescence monitor was at 330 nm (excitation) and 430 (emission).

[2] = tested on: HIV-1 (RF) in MT-2 cells; test: microbe, parasite or virus in culture; format: cell-based
Method: DNA Plasmids and in vitro RNA transcripts:
Plasmid pDAB 72 containing both gag and pol sequences of BH10 (bp 113-1816) cloned into PTZ 19R was prepared according to Erickson-Viitanen et al. AIDS Research and Human Retroviruses 1989, 5, 577. The plasmid was linearized with Bam HI prior to the generation of in vitro RNA transcripts using the Riboprobe Gemini system II kit (Promega) with T7 RNA polymerase. Synthesized RNA was purified by treatment with RNase free DNAse (Promega), phenol-chloroform extraction, and ethanol precipitation. RNA transcripts were dissolved in water, and stored at −70° C. The concentration of RNA was determined from the A260.
Biotinylated capture probes were purified by HPLC after synthesis on an Applied Biosystems (Foster City, Calif.) DNA synthesizer by addition of biotin to the 5′ terminal end of the oligonucleotide, using the biotin-phosphoramidite reagent of Cocuzza, Tet. Lett. 1989, 30, 6287. The gag biotinylated capture probe (5-biotin-[…] 3′) was complementary to nucleotides 889-912 of HXB2 and the pol biotinylated capture probe (5′-biotin-[…] 3′) was complementary to nucleotides 2374-2395 of HXB2. Alkaline phosphatase conjugated oligonucleotides used as reporter probes were prepared by Syngene (San Diego, Calif.). The pol reporter probe (5′ […] 3′) was complementary to nucleotides 2403-2425 of HXB2. The gag reporter probe (5′ […] 3′) was complementary to nucleotides 950-973 of HXB2. All nucleotide positions are those of the GenBank Genetic Sequence Data Bank as accessed through the Genetics Computer Group Sequence Analysis Software Package (Devereau Nucleic Acids Research 1984, 12, 387). The reporter probes were prepared as 0.5μM stocks in 2× SSC (0.3M NaCl, 0.03M sodium citrate), 0.05M Tris pH 8.8, 1 mg/mL BSA. The biotinylated capture probes were prepared as 10 μM stocks in water.
Streptavidin coated plates:
Nunc-immunomodule microtiter plate strips were coated by addition of 200 μL of streptavidin (30 ug/mL, Scripps, La Jolla, Calif.) in freshly prepared 10 mM sodium carbonate (pH 9.6). Plates were incubated overnight at 4° C. Streptavidin solution was aspirated from the wells and a blocking buffer composed of phosphate buffered saline (PBS), 20 mg/mL bovine serum albumin (crystalline, nuclease and protease free, Calbiochem) and 100 mg/mL lactose (Sigma) was added to the plates for 3 hrs at room temperature. Blocking buffer was removed from the wells, which were allowed to dry overnight at room temperature and subsequently stored at 4° C. in zip lock bags with desiccant. For the majority of the compound evaluation experiments, streptavidin coated plates were obtained from Du Pont Biotechnology Systems (Boston, Mass.).
MT-2, CEM, and H9 cells were maintained in RPMI 1640 supplemented with 5% fetal calf serum (FCS), 2 mM L-glutamine and 50 μg/mL gentamycin, all from Gibco. Laboratory strains of HIV-1 (RF, MN and IIIB) were propagated in H9 cells in the same medium. Virus stocks were prepared approximately 1 month after acute infection of H9 cells by clarification of the tissue culture medium and storage of aliquots at −70° C. […] Each aliquot of virus stock used for infection was thawed only once. In some cases, infected H9 cells were shifted to Dulbecco's modified Eagle's medium 3-10 days before collection of virus in order to generate virus stocks in medium with low biotin content. Clinical isolates of HIV that had been passaged once in MT-2 cells were used to infect fresh MT-2 cells in RPMI medium. Three days after infection, cells were pelleted, resuspended and culture continued in Dulbecco's modified Eagle's medium as above. Virus stocks of clinical isolates were prepaid 10-15 days after infection when cytopathic effects were apparent in the culture.

[3] = read-out: Ki (HPLC), Table 1e, cells marked (HPLC)
[4] = Table 2d, class symbols, read-out: HPLC K1
[5] = Human immunodeficiency virus 1, MT2, Table 1e, read-out: IC90
[6] = Human immunodeficiency virus 1, MT2, 24 h, Table 1d, upper part, read-out: IC90
[7] = read-out: HPLC Ki, Table 1d, lower part
[8] = Human immunodeficiency virus 1, MT2, HIV RNA assay, HIV-1 infected MT-2 cells, class symbols, read-out: IC90

O=C1N(Cc2cccc(-c3cc[nH]n3)c2)C(Cc2ccccc2)C(O)C(O)C(Cc2ccccc2)N1Cc1cccc(-c2cc[nH]n2)c1 (stereo not drawn) [Example 15XO]
Ki ([1]; Table 2d, HIV protease inhibition, HPLC method, read-out: HPLC K1): < 0.01 µM

O=C1N(Cc2ccc(CCl)cc2)[C@H](CCc2ccccc2)[C@@H](O)[C@@H](Cc2ccccc2)N1Cc1ccc(CCl)cc1 [Example 8J]
Ki [1, 3]: 0.01 to 1 µM

O=C1NC(Cc2ccccc2)C(O)C(O)C(Cc2ccccc2)N1CC1CC1c1ccccc1 (stereo not drawn) [Example 14I]
Ki [1, 4]: 0.01 to 1 µM

COC(=O)c1cccc(CN2C(=O)N(Cc3cccc(C(=O)OC)c3)[C@H](Cc3ccccc3)[C@H](O)[C@H]2CCc2ccccc2)c1 [Example 8Y]
IC90 [2, 5]: 10 to 100 µg/mL (≈ 16.5 to 165 µM)

COc1ccccc1CC1C(O)C(O)C(Cc2ccccc2OC)N(Cc2ccccc2)C(=O)N1Cc1ccccc1 (stereo not drawn) [Example 16T]
Ki ([1]; Table 2e, read-out: K4 HPLC): 0.01 to 1 µM

C=CCN1C(=O)N(CC=C)C(Cc2ccccc2)C2OCSCOC2C1Cc1ccccc1 (stereo not drawn) [Example 7B]
IC90 [2, 6]: 10 to 100 µg/mL (≈ 21.5 to 215 µM)

O=C1N(CC2CC2)C(Cc2ccccc2)C(=NO)C(O)C(Cc2ccccc2)N1CC1CC1 (stereo not drawn) [Example 7AB]
Ki [1, 7]: > 1 µM

O=C1N(c2ccccc2)C(Cc2ccccc2)C(O)C(O)C(Cc2ccccc2)N1c1ccccc1 (stereo not drawn) [Example 14G]
Ki ([1]; read-out: HPLC K1, Table 2d, class symbols): 0.01 to 1 µM

CN(C)CCNC(=O)c1cccc(CN2C(=O)N(Cc3cccc(C(=O)NCCN(C)C)c3)C(Cc3ccccc3)C(O)C(O)C2Cc2ccccc2)c1 (stereo not drawn) [15XW]
IC90 ([2]; Table 2d, HIV RNA assay): ++ (++=10 to 100 μg/mL)

O=C1N(Cc2cccc(C(F)(F)F)c2)C(Cc2ccccc2)C(O)C(O)C(Cc2ccccc2)N1Cc1cccc(C(F)(F)F)c1 (stereo not drawn) [Example 6Y]
IC90 [2, 8]: > 100 µg/mL

COc1cccc(CN2C(=O)N(Cc3cccc(OC)c3)C(Cc3ccccc3OC)C(O)C(O)C2Cc2ccccc2OC)c1 (stereo not drawn) [Example 16R]
Ki ([1]; Table 2e, read-out: K4 HPLC): 0.01 to 1 µM

CSCCC1C(O)C(O)C(CCSC)N(Cc2ccc(CO)cc2)C(=O)N1Cc1ccc(CO)cc1 (stereo not drawn) [16AF]
Ki ([1]; Table 2e, read-out: K4 HPLC): > 1 µM

O=C1N(Cc2ccc(CO)cc2)[C@H](CCc2ccccc2)[C@@H](O)[C@@H](Cc2ccccc2)N1Cc1ccc(CO)cc1 [Example 8M]
Ki [1, 3]: < 0.01 µM

O=C1NC(Cc2ccccc2)C(O)C(O)C(Cc2ccccc2)N1CC1CC1CCCO (stereo not drawn) [Example 13A]
Ki [1, 4]: 0.01 to 1 µM

O=C1N(CC2CC2)C(Cc2cccs2)C(O)C(O)C(Cc2cccs2)N1CC1CC1 (stereo not drawn) [16O]
Ki ([1]; Table 2e, read-out: K4 HPLC): < 0.01 µM

O=C1N(Cc2ccc3ccccc3c2)C(Cc2ccccc2)C(O)C(C(Br)Cc2ccccc2)N1Cc1ccc2ccccc2c1 (stereo not drawn) [Example 8R]
IC90 [2, 5]: > 50 µg/mL

O=C1N(CC2CC2)C(Cc2ccccc2)C(OCc2ccccc2)C(OCc2ccccc2)C(Cc2ccccc2)N1CC1CC1 (stereo not drawn) [Example 7AG]
Ki [1, 7]: > 1 µM

C=CCCCC1C(O)C(O)C(CCCC=C)N(Cc2ccccc2)C(=O)N1Cc1ccccc1 (stereo not drawn) [Example 16AL]
Ki ([1]; Table 2e, read-out: K4 HPLC): > 1 µM

CC(=NO)c1cccc(CN2C(=O)N(Cc3cccc(C(C)=NO)c3)C(Cc3ccccc3)C(O)C(O)C2Cc2ccccc2)c1 (stereo not drawn) [Example 15XS]
IC90 ([2]; Human immunodeficiency virus 1, MT2, 48 h, Table 2d, HIV RNA assay, read-out: IC90): < 10 µg/mL

C=CCN1C(=O)N(CC=C)C(CCCCCCCC)C(O)C(O)C1CCCCCCCC (stereo not drawn) [Example 16AP]
Ki ([1]; Table 2e, read-out: K4 HPLC): 0.01 to 1 µM

COc1ccc(CC2C(O)C(O)C(Cc3ccc(OC)cc3)N(Cc3ccccc3)C(=O)N2Cc2ccccc2)cc1 (stereo not drawn) [20AG]
Ki ([1]; Table 2i, read-out: HPLC Ki): < 0.01 µM

O=C1N(Cc2ccc3ccccc3c2)C(CCc2ccccc2)[C@@H](O)[C@@H](Cc2ccccc2)N1Cc1ccc2ccccc2c1 (stereo partly drawn) [Example 8G]
IC90 [2, 5]: > 50 µg/mL

NC(=NO)c1cccc(CN2C(=O)N(Cc3cccc(C(N)=NO)c3)C(Cc3ccccc3)C(O)C2CCc2ccccc2)c1 (stereo not drawn) [Example 8AF]
IC90 ([2]; Table 1e): +++ (+++=<10 μg/mL)

O=C1N(Cc2ccc3ccccc3c2)C(C(F)Cc2ccccc2)[C@@H](O)[C@@H](Cc2ccccc2)N1Cc1ccc2ccccc2c1 (stereo partly drawn) [Example 7X]
IC90 [2, 5]: > 100 µg/mL

O=C1N(Cc2ccc(C(F)(F)F)cc2)C(Cc2ccccc2)C(O)C(O)C(Cc2ccccc2)N1Cc1ccc(C(F)(F)F)cc1 (stereo not drawn) [Example 6W]
IC90 [2, 8]: > 100 µg/mL

COC(=O)c1cccc(CN2C(=O)N(Cc3cccc(C(=O)OC)c3)C(Cc3ccccc3)C(O)C2CCc2ccccc2)c1 (stereo not drawn) [Example 8AQ]
IC90 [2, 5]: > 100 µg/mL

O=C1N(Cc2ccc3ccccc3n2)C(Cc2ccccc2)C(O)C(O)C(Cc2ccccc2)N1Cc1ccc2ccccc2n1 (stereo not drawn) [Example 6K]
IC90 [2, 8]: > 100 µg/mL

CNC(=O)OCCCCCCN1C(=O)N(CCCCCCOC(C)=O)C(Cc2ccccc2)C(O)C(O)C1Cc1ccccc1 (stereo not drawn) [Example 12X]
IC90 ([2]; Human immunodeficiency virus 1, MT2, 48 h, Table 2d, class symbols, read-out: IC90): < 10 µg/mL

NC(=NO)c1cccc(CN2C(=O)N(Cc3cccc(C(N)=NO)c3)C(Cc3ccccc3)C(O)C2CCc2ccccc2)c1 (stereo not drawn) [Example 8AO]
IC90 ([2]; Table 1e): + (+=>100 μg/mL)

Nc1ccn([C@H]2CC[C@@H](CO)O2)c(=O)n1 [dideoxycytidine, reference compound]
IC90 ([2]; Human immunodeficiency virus 1, MT2, virus inoculum standardisation, HIV-1 (RF), MT-2 cells, read-out: IC50 value (concentration of compound required to reduce the HIV RNA level by 90%)): 0.2 µg/mL (≈ 0.947 µM)

O=C1N(Cc2ccc3ccccc3c2)C(Cc2ccccc2)C2OCOC2C(Cc2ccccc2)N1Cc1ccc2ccccc2c1 (stereo not drawn) [Example 7Q]
IC90 [2, 6]: 10 to 100 µg/mL (≈ 16.2 to 162 µM)

O=C1N(CC2CC2)C(Cc2ccccc2)C2OCOC2C(Cc2ccccc2)N1CC1CC1 (stereo not drawn) [Example 7H]
IC90 [2, 6]: 10 to 100 µg/mL (≈ 22.4 to 224 µM)

O=C1N(Cc2cccc(I)c2)C(Cc2ccccc2)C(O)C(O)C(Cc2ccccc2)N1Cc1ccc2[nH]nnc2c1 (stereo not drawn) [15DT]
IC90 ([2]; Table 2d, HIV RNA assay): +++ (+++=<10 μg/mL)

Reference: patent USRE37781E1, “Substituted cyclic carbonyls and derivatives thereof useful as retroviral protease inhibitors” (DuPont Pharmaceuticals Company, priority 1991, dated 2002)
